Measurements taken from patent US20230277575A1 (priority 2020, published 2023).

Tests used:
SARS-CoV-2 [1] = test: SARS-CoV-2 genome copy number by RT-qPCR on gene E (Vero E6 cells); type: cell-based; conditions: for genome copy number (in words): increased drug concentration
Experimental: (§1) Seeding of cells and treatment with compound of interest were performed with each compound in triplicate at 5 concentrations, including negative and positive controls. Infection with SARS-CoV-2 was performed at one MOI (multiplicity of infection). Viral particles were recovered in the supernatant after incubation and quantification using TCID50 (tissue culture infectious dose 50%) and RT-PCR was performed. Toxicity measurement of compounds was made on separate cell lines. D1: cell seeding on 96 wells plate, Vero E6 cells. Growth conditions: medium DMEM high glucose (Dutsher L0104-500, lot MS008A) D2: dilution of compounds was carried out in a mix of 100% DMSO diluted to 50% in PBS (NACL-2) or in PBS at […] to avoid solubility issues of some compounds. Compounds were tested at 5 concentrations, from 10^−4 M to 10^−8 M by serial tenfold dilutions. Infection with SARS-CoV-2 clinical strain was performed to MOI 10^−3. D3: viral titers were determined by TCID50 method and calculated by the Spearman & Kärber algorithm. RT-qPCR on gene E of SARS-CoV-2 was determined by Taqman One-Step RT-qPCR. Infection process: at T0 infection was performed with SARS-CoV-2 MOI 10^−3 (0.001). At T0+1 h virus was removed and the plates were washed with PBS (2×1 mL), 1 mL medium was then added with compound from 100 μM to 10 nM. A 24 h incubation step was carried out. At T0+25 h, 500 μL of supernatant was recovered and TCID50 processing and RT-qPCR were performed. Following 4 additional days of incubation the endpoint was obtained and TCI D50 reading and calculation was performed.

Vero cells = test: Toxicity testing on Vero cells; conditions: for CC50: Vero cells, 24 h post treatment
[2] = Toxicity testing on Vero cells; conditions: African green monkey, Vero cells, CC50, Vero cells, 24 h post treatment
SARS-CoV-2 [3] = test: SARS-CoV-2 virus production in Vero E6 cells (TCID50); type: cell-based; conditions: for antiviral activity (conclusion, in words): SARS-CoV-2; for IC50: Severe acute respiratory syndrome coronavirus 2, Vero C1008, TCID50, Vero E6 cells, MOI 10^−3; for virus production (in words): increased drug concentration, dose response
Experimental: as §1

in vitro = conditions: human

Structure (SMILES) | IC50 (SARS-CoV-2 [1]; Severe acute respiratory syndrome coronavirus 2, Vero C1008, RT-qPCR on gene E, Vero E6 cells) [µM] | log decrease in copy genome (SARS-CoV-2 [1]; at 10 μM) [log] | toxicity observed in RT-qPCR test (SARS-CoV-2 [1]; at 100 μM) | genome copy number (in words) (SARS-CoV-2 [1]) | CC50 (Vero cells; listed as clitocine) [µM] | toxicity on Vero cells (in words) (Vero cells; depending on the concentration used) | CC50 at 24 h [2] [µM] | antiviral activity (conclusion, in words) (SARS-CoV-2 [3]) | IC50 (SARS-CoV-2 [3]) [µM] | log decrease in viral production (SARS-CoV-2 [3]; at 10 μM) [log] | toxicity observed in virus production test (SARS-CoV-2 [3]; at 100 μM) | virus production (in words) (SARS-CoV-2 [3]) | IC50 times lower than that of Remdesivir (SARS-CoV-2 [3]; virus production IC50) [times] | CC50 (in vitro) [µM] | CC50 (Vero cells) [µM] | IC50 times lower than that of NACI-1 (SARS-CoV-2 [3]; virus production IC50) [times]
Nc1ncnc(N[C@@H]2O[C@H](CO)[C@@H](O)[C@H]2O)c1[N+](=O)[O-] [Compound 1, (2R,3R,4S,5R)-2-[(6-amino-5-nitropyrimidin-4-yl)amino]-5-(hydroxymethyl)oxolane-3,4-diol] | 0.176 | ~2 | some toxicity was observed | decrease significantly | 3.09 | some degree of toxicity | 3.09 | Potent antiviral activity | 0.188 | 3 | some toxicity was observed | decrease significantly | 5 | 108 | – | –
NC(=O)c1ncn([C@@H]2O[C@H](CO)[C@@H](O)[C@H]2O)c1O [Mizoribine, 1-[(2R,3R,4S,5R)-3,4-dihydroxy-5-(hydroxymethyl)oxolan-2-yl]-5-hydroxy-1H-imidazole-4-carboxamide] | – | – | – | does not impact | – | – | 191 | Potent antiviral activity | 0.66 | – | – | decrease significantly | – | 850 | 191 | 3
